This experiment deals with Candida albicans. The experiment can be described thus: Survival of mice infected with Candida albicans after oral administration. The experiment is classed as in vivo. The note with it: for responders at 20 mg/kg: po. As to the method:
To mice (one group consisting of 10 mice), which were innoculated with 4 to 9×10^6 Candida albicans, were administered orally 20 mg/kg of preparations after 1, 4 and 24 hours, and thereafter the survival rate until 21 days after infection was examined.

[1] abbreviates: 336 h, mice inoculated with 4 to 9×10^6 Candida albicans, 20 mg/kg orally after 1, 4 and 24 hours, 14 days after infection, read-out: Survival rate % 14 days.
The mark [2] stands for this setting: 504 h, mice inoculated with 4 to 9×10^6 Candida albicans, 20 mg/kg orally after 1, 4 and 24 hours, 21 days after infection, read-out: Survival rate % 21 days.

This is an account of results in US20010031768A1, “Triazole antifungal agent” (SANKYO COMPANY LIMITED, priority 1995, published 2001).

SMILES strings stand for the structures. Like-named read-outs stand apart in the source and are kept apart here.

`CC(SC1COC(/C=C/C=C/C=C/c2ccc(C(F)(F)F)cc2)OC1)C(O)(Cn1cncn1)c1ccc(F)cc1F` [Example 37, (2R,3R)-2-(2,4-Difluorophenyl)-1-(1 H-1,2,4-triazol-1-yl)-3-[[trans-2-[(1E,3E,5E)-6-[4-(trifluoromethyl)phenyl]-1,3,5-hexatrien-1-yl]-1,3-dioxam-5-yl]thio]-2-butanol]: the responders at 20 mg/kg under setting [1] turned out to be 100% and the responders at 20 mg/kg under setting [2] was found to be 100%.

As to `C[C@@H](S[C@H]1CO[C@H](/C=C/C=C/c2ccc(SC(F)(F)F)cc2)OC1)[C@](O)(Cn1cncn1)c1ccc(F)cc1F` [Example 32, (2R,3R)-2-(2,4-Difluorophenyl)-1-(1 H-1,2,4-triazol-1-yl)-3-[[trans-2-[(1E, 3E) -4-[4-(trifluoromethylthio)phenyl]-1,3-butadien-1-yl]-1,3-dioxan-5-yl]thio]-2-butanol], the responders at 20 mg/kg reads like this: under setting [1], 100%; under setting [2], 100%.

On to `C[C@@H](SC1CCN(C(=O)/C=C/c2ccc(OC(F)(F)F)cc2)CC1)[C@](O)(Cn1cncn1)c1ccc(F)cc1F` [Example 21, (2R,3R)-2-(2,4-Difluorophenyl) -3-[[1-[(E)-4-(trifluoromethoxy)cinaamoyl]piperidin-4-yl]thio]-1-(1 H-1,2,4-triazol-1-yl)-2-butanol], for which the “Survival rate % 14 days” value (mice inoculated with 4 to 9×10^6 Candida albicans, 20 mg/kg orally after 1, 4 and 24 hours, 14 days after infection) is 100%. Also, the “Survival rate % 21 days” value (mice inoculated with 4 to 9×10^6 Candida albicans, 20 mg/kg orally after 1, 4 and 24 hours, 21 days after infection) was 60%.

In the case of `C[C@@H](S[C@H]1CO[C@H](/C=C/C=C/c2ccc(C(F)(F)F)cc2)OC1)[C@](O)(Cn1cncn1)c1ccc(F)cc1F` [Example 15, (2R,3R)-2-(2,4-Difluorophenyl)-1-(1 H-1,2,4-triazol-1-yl) -3-[[trans-2-[(1 E,3 E)-4-[4-(trifluoromethyl)phenyl]-1,3-butadien-1-yl]-1,3-dioxan-5-yl]thio]-2-butanol], the responders at 20 mg/kg under setting [1] was 100% and the responders at 20 mg/kg under setting [2] came to 100%.

Take `C[C@@H](S[C@H]1CO[C@H](/C=C/C=C(/c2ccc(Cl)cc2)C(F)(F)F)OC1)[C@](O)(Cn1cncn1)c1ccc(F)cc1F` [Example 18, (2R,3R) -2-(2,4-Difluorophenyl)-3-[[trans-2-[(1 E,3 Z)-4-(4-chlorophenyl)-5,5,5-trifluoro-1,3-pentadien-1-yl]-1,3-dioxan-5-yl]thio]-1-(1 H-1,2,4-triazol-1-yl)-2-butanol]: the responders at 20 mg/kg by setting is: under setting [1], 100%; under setting [2], 100%.

On to `CC(C)(SC1COC(/C=C/c2ccc(C(F)(F)F)cc2)OC1)C(O)(Cn1cncn1)c1ccc(C(F)(F)F)cc1` (racemic) [Example 30, (RS)-3-Methyl-1-(1 H-1,2,4-triazol-1-yl)-2-[4-(trifluoromethyl)phenyl]-3-[[trans-2-[(E)-2-[4-(trifluoromethyl)phenyl]vinyl]-1,3-dioxan-5-yl]thio]-2-butanol], for which the responders at 20 mg/kg came out at 100% under setting [1] and 100% under setting [2].

For `C[C@@H](S[C@H]1CO[C@H](/C=C/C=C/c2ccc(OCC(F)(F)C(F)F)cc2)OC1)[C@](O)(Cn1cncn1)c1ccc(F)cc1F` [Example 16, (2R,3R)-2-(2,4-Difluorophenyl)-3-[[trans-2-[(1 E,3 E)-4-[4-(2,2,3,3-tetrafluoropropoxy)phenyl]-1,3-butadien-1-yl]-1,3-dioxan-5-yl]thio]-1-(1 H-1,2,4-triazol-1-yl)-2-butanol], the responders at 20 mg/kg by setting is: under setting [1], 100%; under setting [2], 100%.

As to `C[C@@H](S[C@H]1CO[C@H](/C=C/c2ccc(OC(F)(F)F)cc2)OC1)[C@](O)(Cn1cncn1)c1ccc(F)cc1F` [Example 11, (2R,3R)-2-(2,4-Difluorophenyl)-1-(1 H-1,2,4-triazol-1-yl)-3-[[trans-2-[(E)-2-[4-(trifluoromethoxy)phenyl]vinyl]-1,3-dioxan-5-yl]thio]-2-butanol], the responders at 20 mg/kg is, setting by setting: under setting [1], 100%; under setting [2], 100%.

With `OC(Cn1cncn1)(Cn1cncn1)c1ccc(F)cc1F` [Fluconazol, reference compound], the responders at 20 mg/kg (Candida albicans, 336 h, read-out: Survival rate % 14 days) was found to be 70% and the responders at 20 mg/kg (Candida albicans, 504 h, read-out: Survival rate % 21 days) turned out to be 60%.

For `C[C@@H](S[C@H]1CO[C@H](/C=C/C=C/c2ccc([S+]([O-])C(F)(F)F)cc2)OC1)[C@](O)(Cn1cncn1)c1ccc(F)cc1F` (stereo partly drawn) [Example 35, (2R,3R)-2-(2,4-Difluorophenyl)-1-(1 H-1,2,4-triazol-1-yl)-3-[[trans-2-[(1E,3E)-4-[4-(trifluoromethylsulfinyl)phenyl]-1,3-butadien-1-yl]-1,3-dioxan-5-yl]thio]-2-butanol], the responders at 20 mg/kg under setting [1] was determined as 100% and the responders at 20 mg/kg under setting [2] is 100%.

With `C[C@@H](S[C@H]1CO[C@H](/C=C/c2ccc(C(F)(F)F)cc2)OC1)[C@](O)(Cn1cncn1)c1ccc(F)cc1F` [Example 2, (2R,3R)-2-(2,4-Difluorophenyl)-3-[[trans-2-[(E)-2-[4-(trifluoromethyl)phenyl]vinyl]-1,3-dioxan-5-yl]thio]-1-(1 H-1,2,4-triazol-1-yl)-2-butanol], the responders at 20 mg/kg under setting [1] was 100% and the responders at 20 mg/kg under setting [2] was 100%.
